Among the data in patent publication US20110086759A1, “CHEMICAL COMPOUNDS” (SYNGENTA CROP PROTECTION, INC., priority 2007, published 2011) are pest or weed control values, retold here.

The structures appear in SMILES notation.

Holding throughout (format): in vivo
Assay [1] concerns Alopecurus myosuroides (ALOMY). Description: Pre-emergence biological efficacy, glasshouse pot test. As to conditions: 312 h, pre-emergence, rate 1,000 g/ha, evaluated after 13 days (100=total damage to plant; 0=no damage), read-out: Percentage damage caused to weed species, ALOMY. The procedure, abridged:
(§1)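 One day after seeds were sown in pots, compound was sprayed at 1000 or 250 g/ha. Plants were kept at 24/16 °C with 14 h light and 65% humidity and watered twice daily; damage was graded at day 13 (0 none, 100 total).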

Assay [2] relates to Amaranthus retoflexus (AMARE). Described as above. The note with it: Amaranthus retroflexus, 312 h; pre-emergence, rate 1,000 g/ha, evaluated after 13 days (100=total damage to plant; 0=no damage); read-out: Percentage damage caused to weed species, AMARE. The method, boiled down:
as §1

For assay [3], the system named is Echinochloa crus-galli (ECHCG). The assay is described as above. As to conditions: 312 h, pre-emergence, rate 1,000 g/ha, evaluated after 13 days (100=total damage to plant; 0=no damage), read-out: Percentage damage caused to weed species, ECHCG. The method, boiled down: as §1
In assay [4] the test system is Ipomea hederaceae (IPOHE). Described as above. The note with it: Ipomoea hederacea, 312 h; pre-emergence, rate 1,000 g/ha, evaluated after 13 days (100=total damage to plant; 0=no damage); read-out: Percentage damage caused to weed species, IPOHE. The method, boiled down: as §1
Assay [5] relates to Setaria faberi (SETFA). The assay is described as above. The note with it: 312 h, pre-emergence, rate 1,000 g/ha, evaluated after 13 days (100=total damage to plant; 0=no damage), read-out: Percentage damage caused to weed species, SETFA. The procedure, abridged:
as §1

The subject of assay [6] is Solanum nigrum (SOLNI). Described as above. As to conditions: 312 h, pre-emergence, rate 1,000 g/ha, evaluated after 13 days (100=total damage to plant; 0=no damage), read-out: Percentage damage caused to weed species, SOLNI. The method, boiled down: as §1
The test system of assay [7] is Alopecurus myosuroides (ALOMY). Description: Post-emergence biological efficacy, glasshouse pot test. As to conditions: 312 h, Rate 1,000 g/ha, post-emergence spray, evaluated after 13 days (100=total damage to plant; 0=no damage to plant), read-out: Percentage damage caused to weed species, post-emergence, ALOMY. The procedure, abridged:
(§2)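 Plants were sown in standard soil and grown 8 days in a glasshouse (24/16° C. day/night, 14 hours light, 65% humidity), then sprayed post-emergence at 1000 or 250 g/ha from acetone/water (50:50) with 0.5% Tween 20. Damage was scored visually after 13 days (0 = none, 100 = total).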

For assay [8], the system named is Amaranthus retoflexus (AMARE). The description is as above. The note with it: Amaranthus retroflexus, 312 h; Rate 1,000 g/ha; post-emergence spray; evaluated after 13 days (100=total damage to plant; 0=no damage to plant); read-out: Percentage damage caused to weed species, post-emergence, AMARE. The method, boiled down: as §2
In assay [9] the test system is Echinochloa crus-galli (ECHCG). The description is as above. As to conditions: 312 h, Rate 1,000 g/ha, post-emergence spray, evaluated after 13 days (100=total damage to plant; 0=no damage to plant), read-out: Percentage damage caused to weed species, post-emergence, ECHCG. The method, boiled down: as §2
For assay [10], the system named is Ipomea hederaceae (IPOHE). The assay is described as above. The note with it: Ipomoea hederacea, 312 h; Rate 1,000 g/ha; post-emergence spray; evaluated after 13 days (100=total damage to plant; 0=no damage to plant); read-out: Percentage damage caused to weed species, post-emergence, IPOHE. The method, boiled down:
as §2

In assay [11] the test system is Setaria faberi (SETFA). The description is as above. The note with it: 312 h, Rate 1,000 g/ha, post-emergence spray, evaluated after 13 days (100=total damage to plant; 0=no damage to plant), read-out: Percentage damage caused to weed species, post-emergence, SETFA. The procedure, abridged: as §2
Assay [12] has as its system Solanum nigrum (SOLNI). The description is as above. As to conditions: 312 h, Rate 1,000 g/ha, post-emergence spray, evaluated after 13 days (100=total damage to plant; 0=no damage to plant), read-out: Percentage damage caused to weed species, post-emergence, SOLNI. The procedure, abridged:
as §2

Regarding `C=Cc1ccc(-c2c(NCc3ccco3)nc(C3CC3)nc2C(=O)OC)cc1` [Compound 187-125, 2-Cyclopropyl-5-(4-ethenylphenyl)-4-(furan-2-ylmethylamino)-6-methoxycarbonyl-pyrimidine], the pest or weed control at 1000 g/ha in assay [1], in assay [2], in assay [3], in assay [4], in assay [5] and in [6] was 0% throughout. Moreover, the pest or weed control at 1000 g/ha in assay [7] was found to be 0%; in [8], 70%; in assay [9], 0%; in assay [10], 40%; in [11], 0%; in [12], 50%.

As for `CC(C)OC(=O)c1nc(C2CC2)nc(NCc2ccco2)c1Cl` [Compound 197-125, 5-Chloro-2-cyclo-propyl-4-(2-furanylmethyl-amino)-6-iso-propoxycarbonyl-pyrimidine], the pest or weed control at 1000 g/ha in [1] came to 50%; in [2], 100%; in [3], 70%; in [4] it was 100%; in assay [5], 70%; in assay [6], 90%. In addition, the pest or weed control at 1000 g/ha amounted to 50% in [7]; 100% in assay [8]; 70% in assay [9]; 100% in [10]; 100% in [11]; 100% in assay [12].

For `CCCOC(=O)c1nc(C2CC2)nc(NCc2ccco2)c1Cl` [Compound 198-125, 5-chloro-2-cyclopropyl-4-[(furan-2-ylmethyl)-amino]-6-^npropoxycarbonylpyrimidine], the pest or weed control at 1000 g/ha in assay [1] stood at 40%; in assay [2] it was 100%; in [3] it was 80%; in assay [4], 100%; in assay [5], 80%; in assay [6], 100%. Besides, the pest or weed control at 1000 g/ha in assay [7] was 40%; in [8] it was 100%; in [9] it was 80%; in assay [10] it was 100%; in assay [11], 90%; in assay [12] it was 90%.

For `CC(C)COC(=O)c1nc(C2CC2)nc(NCc2ccco2)c1Cl` [Compound 199-125, 5-Chloro-2-cyclopropyl-4-(2-furanylmethyl-amino)-6-iso-butoxycarbonyl-pyrimidine], the pest or weed control at 1000 g/ha turned out to be 40% in [1]; 100% in assay [2]; 50% in [3]; 100% in assay [4]; 80% in assay [5]; 100% in assay [6]. In addition, the pest or weed control at 1000 g/ha in assay [7] came out at 20%; in [8] it was 100%; in assay [9], 70%; in assay [10], 100%; in assay [11], 70%; in assay [12] it was 80%.

As to `O=C(OCc1ccccc1)c1nc(C2CC2)nc(NCc2ccco2)c1Cl` [Compound 200-125], the pest or weed control at 1000 g/ha in [1] was 50%; in assay [2], 100%; in assay [3], 70%; in assay [4] it was 100%; in assay [5], 70%; in [6], 100%. In addition, the pest or weed control at 1000 g/ha in assay [7] came out at 30%; in assay [8] it was 100%; in assay [9], 70%; in assay [10] it was 90%; in assay [11], 80%; in assay [12] it was 90%.

Consider `COC(=O)c1nc(Cl)nc(NC2CC2)c1Cl` [Compound 207-30, 4-Cyclopropylamino-2,5-dichloro-6-methoxycarbonyl-pyrimidine], for which the pest or weed control at 1000 g/ha in assay [1], in assay [2], in assay [3], in [4], in assay [5] and in assay [6] was 0% in each case. Moreover, the pest or weed control at 1000 g/ha is 10% in assay [7]; 0% in assay [8]; 0% in [9]; 20% in [10]; 0% in assay [11]; 10% in assay [12].

In the case of `COC(=O)c1nc(Cl)nc(NCC2CC2)c1Cl` [Compound 207-31, 4-Cyclopropylmethyl-amino-2,5-dichloro-6-methoxycarbonyl-pyrimidine], the pest or weed control at 1000 g/ha came to 0% in assay [1]; 20% in assay [2]; 0% in assay [3]; 0% in [4]; 0% in assay [5]; 10% in assay [6]. Further, the pest or weed control at 1000 g/ha in assay [7] came out at 10%; in assay [8], 50%; in assay [9], 0%; in [10], 10%; in [11], 40%; in assay [12] it was 60%.

With `COC(=O)c1nc(Cl)nc(NCc2ccccc2)c1Cl` [Compound 207-35, 2,5-Dichloro-6-methoxycarbonyl-4-phenylmethylamino-pyrimidine], the pest or weed control at 1000 g/ha in assay [1] is 10%; in assay [2], 30%; in [3] it was 10%; in [4] it was 10%; in assay [5], 0%; in assay [6], 0%. In addition, the pest or weed control at 1000 g/ha was determined as 30% in [7]; 50% in [8]; 20% in assay [9]; 10% in assay [10]; 30% in [11]; 60% in assay [12].

As for `COC(=O)c1nc(Cl)nc(NCc2ccc(C)o2)c1Cl` [Compound 207-50, 2,5-Dichloro-6-methoxycarbonyl-4-(5-methylfuran-2-ylmethylamino)-pyrimidine], the pest or weed control at 1000 g/ha in assay [1] worked out at 0%; in [2], 60%; in [3], 0%; in [4] it was 40%; in [5], 0%; in assay [6], 80%. For the same molecule, the pest or weed control at 1000 g/ha in assay [7] was 0%; in [8], 40%; in assay [9], 0%; in [10], 70%; in assay [11] it was 0%; in assay [12], 80%.
